The values below come from patent US20230218706A1 (9 Meters Biopharma, Inc., priority 2020, published 2023).

Data set [1] deals with pig ischemic jejunum tissue. Kind of data set: Ex vivo assessment of peptide stability (degradation by brush border enzymes) in pig ischemic jejunum tissue. The conditions noted are these: for peptide concentration, T = 0 mins after addition / peptide concentration, T = 30 mins after addition / peptide concentration, T = 120 mins after addition: 1 μm addition of each peptide to pig ischemic jejunum tissue. An excerpt: (§1) After 45-minutes of ischemia, the pigs were euthanized, and intestinal segments were collected. Non-ischemic control tissue was also collected at this time. Following tissue collection, the seromuscular layer was stripped from the mucosa while the tissue was bathed in oxygenated (95% 02, 5% CO2) Ringer's solution (in mmol/L: 154 Na^+, 6.3 K^+, 137 Cl^−, and 24 HCO3−; pH 7.4). The mucosa was subsequently mounted in 1.1-cm^2 aperture Ussing chambers, as described in previous studies, which are herein incorporated by reference in their entireties, Moeser, A. J.; Nighot, P. K.; Ryan, K. A.; Wooten, J. G.; Blikslager, A. T. Prostaglandin-mediated inhibition of Na+/H+ exchanger isoform 2 stimulates recovery of barrier function in ischemia-injured intestine. Am J Physiol Gastrointest Liver Physiol (2006), 291, G885-94; and Jin, Y.; Blikslager, A. T. Myosin light chain kinase mediates intestinal barrier dysfunction via occludin endocytosis during anoxia/reoxygenation injury. Am J Physiol Cell Physiol (2016), 311, C996-C1004. Tissues were bathed on both the mucosal and serosal sides with 10 mL Ringer's solution. The mucosal bathing solution contained 10 mM mannitol while the serosal side was osmotically balanced with 10 mM glucose. Bathing solutions were oxygenated (95% O2, 5% CO2) and circulated in water-jacketed reservoirs. The spontaneous potential difference (PD) was measured using Ringer-agar bridges connected to calomel electrodes, and the PD was short-circuited through Ag—AgCl electrodes using a voltage clamp that was corrected for fluid resistance. TER (Ω·cm^2) was calculated from the spontaneous PD and short-circuit current (Isc). If the spontaneous PD was between −1.0 and 1.0 mV, tissues were current clamped at ±100 μA for 5-seconds, and the PD was recorded. Isc and PD were recorded at 15-minute intervals over a 4-hour experiment. After tissues were mounted on Ussing chambers, all tissues were allowed to acclimate for a period of 30-minutes to establish stable baseline measurements, after which experimental treatments of larazotide or larazotide analogs was added to the apical chamber. Tissues were monitored by measuring transepithelial resistance (TER) for 240 min. Samples of Ringers solution were collected at select timepoints and quenched with 5% trifluoroacetic acid (TFA) solution (in 80% acetonitrile (ACN): 20% DI water). Quenched samples were centrifuged at 13000×g for 5-minutes and the resulting supernatants were stored at −80° C. for future MS analysis.
The recovery effects of Analogs #5 and 6 were also compared in an ex vivo test for recovery of ischemic-injured pig jejunum tissue. […] Analogs #5 and 6 were further compared for peptide stability—Analog #5 (D-Val), Analog #6 (All D) and larazotide concentrations were measured at TO, 30, and 120 minutes after 1 μm addition of each to pig ischemic jejunum tissue.
A set of experiments was conducted in order to compare the all-D amino acid larazotide analog (Analog #6) with larazotide in terms of degradation profiles, recovery effects, and dose response profiles.

The subject of data set [2] is BLM-induced pulmonary fibrosis model mice.
Data set [3] deals with ischemic-injured porcine jejunum. Kind of data set: Ex vivo recovery of transepithelial electrical resistance (TEER/TER) of ischemic-injured porcine jejunum in Ussing chambers. The format is cell-based, pig. The conditions noted are these: for effect of excess fragment on action of Analog #6: 10 μM fragment applied 30 mins before 0.1 μM Analog #6 (100 fold excess), FIGS. 8-10; for activity as tight junction regulators: fragment alone; for effect of fragment on larazotide activity: fragment mixed with full-length larazotide (10 μM fragment + 1 μM larazotide, FIG. 7); for induction of recovery of ischemic-injured tissue: FIG. 2.
Text: In order to evaluate the activity profile of larazotide and larozotide analogs, an ex vivo assay was employed measuring transepithelial electrical resistance (TEER) of ischemic-injured porcine jejunum.
Several larazotide analogs were initially tested in an ex vivo model, measuring the recovery of an ischemic-injured pig jejunum tissue.
Six-to-eight-week-old Yorkshire crossbred pigs of either sex were individually housed and maintained on a commercially pelleted feed. Pigs were held off feed for 12 hours prior to experimental surgery. General anesthesia was induced with xylazine (1.5 mg/kg IM), ketamine (11 mg/kg IM), followed by mask delivery of isoflurane vaporized in 100% 02. Pigs were subsequently orotracheally intubated, followed by continued delivery of isoflurane in 100% 02 to maintain a surgical plane of anesthesia. An intravenous catheter was placed in an ear vein for delivery of fluids during surgery (lactated Ringer solution, 15 m1·kg^−1h^−1, IV). The distal jejunum was approached via a ventral midline incision. Jejunal segments were delineated by ligating the intestine at 8-10 cm intervals with 2-0 silk, and were subjected to segmental ischemia by ligating the local mesenteric blood supply with 2-0 silk for 45-minutes.
as §1, with “chamber.” for “chamber. Tissues were monitored by measuring transepithelial resistance (TER) for 240 min. Samples of Ringers solution were collected at select timepoints and quenched with 5% trifluoroacetic acid (TFA) solution (in 80% acetonitrile (ACN): 20% DI water). Quenched samples were centrifuged at 13000×g for 5-minutes and the resulting supernatants were stored at −80° C. for future MS analysis.”

In the next data set the test system is Celiac disease symptoms. The following applies: cited from earlier work.

Entries after “also recorded” stand apart in the source; their conditions may differ. Where a SMILES comes first, the peptide text is derived from it. Where no end group is shown, it is not given here. [ ]: non-standard residue; d: D form.

For the compound `CC(C)C[C@H](NC(=O)[C@H](NC(=O)CNC(=O)CN)C(C)C)C(=O)N[C@H](C(=O)N[C@@H](CCC(N)=O)C(=O)N1CCC[C@H]1C(=O)NCC(=O)O)C(C)C` [Analog #5, H2N-GG(dV)LVQPG-OH] (H-GG[dV]LVQPG-OH), in data set [1], the “peptide concentration, T = 0 mins after addition” value (from here on “peptide concentration, T = 0 mins”) stood at 0.510 µg/mL; the “peptide concentration, T = 30 mins after addition” value (“peptide concentration, T = 30 mins” below) came out at 0.012 µg/mL; the “peptide concentration, T = 120 mins after addition” value (“peptide concentration, T = 120 mins” below) was 0.005 µg/mL.

Take `CC(C)C[C@@H](NC(=O)[C@H](NC(=O)CNC(=O)CN)C(C)C)C(=O)N[C@@H](C(=O)N[C@H](CCC(N)=O)C(=O)N1CCC[C@@H]1C(=O)NCC(=O)O)C(C)C` [Analog #6, H2N-GG(dV)(dL)(dV)(dQ)(dP)G-OH] (H-GG[dV][dL][dV][dQ][dP]G-OH): the “lung fibrosis, Ashcroft grading of Masson's Trichrome-stained right lung sections” value in data set [2] (1 mg/kg orally once daily Day 0 to 20, sacrifice Day 21, FIG. 18) is on record as “less fibrosis than either the vehicle or larazotide samples”. Besides, in data set [2] (provided orally), the “therapeutic effect in mouse model of pulmonary fibrosis” value is given as “better therapeutic effect than larazotide”. For the same compound, in data set [1], the “peptide concentration, T = 0 mins” value turned out to be 0.517 ug/ml ug/mL; the “peptide concentration, T = 30 mins” value amounted to 0.436 µg/mL; the “peptide concentration, T = 120 mins” value stood at 0.086 µg/mL. Moreover, in data set [1] (jejunum epithelial brush border enzymes, in words (Table 2, FIG. 4)), the “resistance to brush border enzyme degradation” value is “significant resistance to brush border enzyme degradation as compared to larazotide and Analog #5; also recorded: significantly more resistant to degradation than larazotide”. In addition, the “dose response of repair of injured intestine (TER)” value in data set [3] (0.01 μM, 0.1 μM, 1 μM and 10 μM, FIG. 6) was “did not exhibit the distinct bell-shaped dose-response of larazotide”. In addition, in data set [3] (0.1 μM, FIG. 6), the “recovery of TER” value is recorded as “induced good recovery of TER”. Besides, in data set [3] (1 μM, recovery period of 240 minutes, FIG. 5), the “recovery of ischemic-injured intestine (transepithelial electrical resistance)” value was “induces recovery to substantially the same extent as larazotide”. The “recovery effect on ischemic-injured pig jejunum tissue” value in data set [3] (FIG. 3, Analog #6 compared with Analog #5) was “pronounced recovery effect as compared to Analog #5”.

For “(d)Val-(d)Leu-(d)Val-(d)Gln-(d)Pro-Gly [Analog A6F2]”, the “effect of excess fragment on action of Analog #6” value in data set [3] is “does not appear to be meaningfully blocked”.

Consider “GVLVQPG [Fragment 1, reference compound]”, for which, in data set [3], the “activity as tight junction regulators” value was “inactive as tight junction regulators” and the “effect of fragment on larazotide activity” value is “inhibit larazotide activity; also recorded: activity is completely abolished”.

As to “Gly-(d)Val-(d)Leu-(d)Val-(d)Gln-(d)Pro-Gly [Analog A6F1]”, the “effect of excess fragment on action of Analog #6” value in data set [3] is “less significant impact on the action of the all-D amino acid larazotide analog”.

As for “H2N-(dV)GGVLVQPG-OH (H-[dV]GGVLVQPG-OH; SMILES CC(C)C[C@H](NC(=O)[C@@H](NC(=O)CNC(=O)CNC(=O)[C@H](N)C(C)C)C(C)C)C(=O)N[C@H](C(=O)N[C@@H](CCC(N)=O)C(=O)N1CCC[C@H]1C(=O)NCC(=O)O)C(C)C) [Analog #2]”, the “induction of recovery of ischemic-injured tissue” value (“induction” for short) in data set [3] is given as “no significant induction of recovery”.

Turning to “H2N-GGV(dL)VQPG-OH (H-GGV[dL]VQPG-OH) [Analog #1]”, the “induction” value in data set [3] was “no significant induction of recovery”.

Regarding “H2N-VGGVLVQPG-OH (H-VGGVLVQPG-OH) [Analog #3]”, in data set [3], the “induction” value is recorded as “no significant induction of recovery”.

Turning to “H-GGVLVQPG-OH [Larazotide, reference compound]”, the “activity at higher doses in clinical trials” value with Celiac disease symptoms (higher doses (e.g., 1 mg and 2 mg doses)) is recorded as “attenuation of activity, or no activity at all”. Besides, the “reduction of Celiac disease symptoms” value in the data set with Celiac disease symptoms (lower doses (e.g., 0.5 mg dose)) is “significant benefit at reducing Celiac disease symptoms”. In data set [1], the “peptide concentration, T = 0 mins” value came out at 0.508 µg/mL; the “peptide concentration, T = 30 mins” value was found to be 0.212 µg/mL; the “peptide concentration, T = 120 mins” value was 0.007 µg/mL. Also, the “dose-response of repair of ischemic-injured intestine (TEER)” value in data set [3] (FIG. 1, low, middle and high dose range) is reported as ““bell-shaped” dose-dependent manner”.

In the case of VLVQPG [Fragment 2, reference compound], in data set [3], the “activity as tight junction regulators” value was “inactive as tight junction regulators” and the “effect of fragment on larazotide activity” value is reported as “inhibit larazotide activity; also recorded: activity is completely abolished”.
